Where a name gives a salt, the structure may show the parent alone.

The test deals with T1, Human coagulation factor (F)XI (Homo sapiens, UniProt P03951).
T1 construct: purchased Haematologic Technologies Inc. (FXI); Enzyme Research Laboratories (FXIIa) HCXI-150 (FXI); HFXIIa (FXIIa)
T1 sequence (P03951 19-625): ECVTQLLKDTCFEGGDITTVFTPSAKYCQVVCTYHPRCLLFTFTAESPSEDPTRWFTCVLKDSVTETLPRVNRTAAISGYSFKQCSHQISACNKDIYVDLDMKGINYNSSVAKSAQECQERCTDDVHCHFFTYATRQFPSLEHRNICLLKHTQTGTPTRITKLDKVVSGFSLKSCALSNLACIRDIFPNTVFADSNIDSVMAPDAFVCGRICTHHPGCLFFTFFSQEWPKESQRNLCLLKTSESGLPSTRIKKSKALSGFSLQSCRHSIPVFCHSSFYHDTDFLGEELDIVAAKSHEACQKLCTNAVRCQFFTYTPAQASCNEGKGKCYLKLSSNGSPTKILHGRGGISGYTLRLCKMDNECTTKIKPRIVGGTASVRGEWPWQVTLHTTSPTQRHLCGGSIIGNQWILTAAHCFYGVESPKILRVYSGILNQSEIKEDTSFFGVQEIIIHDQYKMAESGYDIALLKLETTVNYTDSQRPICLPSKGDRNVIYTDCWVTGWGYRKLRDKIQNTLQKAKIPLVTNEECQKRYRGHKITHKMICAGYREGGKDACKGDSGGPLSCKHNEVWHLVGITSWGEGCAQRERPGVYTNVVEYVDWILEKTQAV
The test is described as follows: Inhibition of FXIIa mediated activation of FXI (activation of human Factor XI to XIa by human Factor α-XIIa). The class given is biochemical. As to conditions: human FXI pre-incubated with compound 30 min at 22° C., activation by human FXIIa 60 min, z-GPR-AFC substrate, fluorescence 405/510 nm, 4 parameter logistic fit; read-out: Inhibition of FXIIa meditated activation of FXI. The procedure: Inhibition of FXIIa Mediated Activation of FXI
Activation of Human Factor XI to XIa by Human Factor α-XIIa
Assay was performed in 50 mM HEPES, 150 mM NaCl, 5 mM CaCl2, 0.1% PEG-8000, pH 7.4 buffer in black, flat-bottom, polystyrene microplates (Corning, Cat #3573). Serial dilutions (10-point, 3.333-fold) of the test compounds delivered as 10 mM DMSO stocks were prepared in the Labcyte Echo-qualified PP 384 well microplates (Labcyte, Cat #P-05525). Human coagulation factor (F)XI (Haematologic Technologies Inc., Cat #HCXI-150, concentration 46 nM, 19.5 uL) was pre-incubated with 0.5 uL of the test compounds for 30 min at 22° C. The activation was initiated by addition of 10 uL of human coagulation factor (F)XIIa (Enzyme Research Laboratories, Cat #HFXIIa, concentration 30 nM) and reaction proceeded for 60 min at 22° C., after which it was quenched by addition of a selective inhibitor of FXIIa (Compound 54 in WO2018093695) concentration 600 uM in DMSO, 1 uL). 10 min after the quench, 29 uL of z-GPR-AFC substrate (Sigma, Cat #C0980-10MG, concentration 200 uM) was added into each well and the detection reaction proceeded for 60 min at 22° C. Fluorescence at 405/510 nm was measured in end-point mode using an Envision plate-reader (Perkin Elmer). IDBS Activity Base XE (ABase) analysis using 4 parameter logistic fit was performed to determine Minimum, Maximum, EC50, and Slope Factor for each compound.
With `Cc1cnc(C(=O)N2CCC(C#N)(c3ccccc3)CC2)cc1C(=O)N1CC2CC(C1)C2c1ccccc1` (centres unmarked) [Example 13, 1-(5-methyl-4-(6-phenyl-3-azabicyclo[3.1.1]heptane-3-carbonyl)picolinoyl)-4-phenylpiperidine-4-carbonitrile], the EC50 was 66.7 nM.
As for `Cc1cnc(C(=O)N2CCC(C#N)(c3ccccc3)CC2)cc1C(=O)N1CCC2c3cc(F)ccc3OC2C1` (centres unmarked) [Example 14, 1-(4-(6-fluoro-1,2,3,4,4a,9a-hexahydrobenzofuro[2,3-c]pyridine-2-carbonyl)-5-methylpicolinoyl)-4-phenylpiperidine-4-carbonitrile], the figure is 45.1 nM.
The figure for `CC(C)(C)C1CCN(C(=O)c2cc(C(=O)N3CCC(C#N)(c4ccccc4)CC3)ncc2C2CC2)CC1` [Example 15, 1-(4-(4-(tert-butyl)piperidine-1-carbonyl)-5-cyclopropylpicolinoyl)-4-phenylpiperidine-4-carbonitrile, 2,2,2-trifluoroacetate salt] is 42.5 nM.
The figure for `N#CC1(c2ccccc2)CCN(C(=O)c2cc(C(=O)N3CCC4c5ccccc5OC4C3)c(C(F)(F)F)cn2)CC1` (centres unmarked) [Example 16, 1-(4-(1,2,3,4,4a,9a-hexahydrobenzofuro[2,3-c]pyridine-2-carbonyl)-5-(trifluoromethyl)picolinoyl)-4-phenylpiperidine-4-carbonitrile] is 106 nM; for `N#CC1(c2ccccc2)CCN(C(=O)c2cc(C(=O)N3CC(c4ccc(F)cc4)C3)c(C(F)(F)F)cn2)CC1` [Example 17, 1-(4-(3-(4-fluorophenyl)azetidine-1-carbonyl)-5-(trifluoromethyl)picolinoyl)-4-phenylpiperidine-4-carbonitrile] it is 411 nM; for `N#CC1(c2ccccc2)CCN(C(=O)c2cc(C(=O)N3CCC(N4CCC(F)(F)C4)CC3)c(C(F)(F)F)cn2)CC1` [Example 18, 1-[4-[4-(3,3-difluoropyrrolidin-1-ium-1-yl)piperidine-1-carbonyl]-5-(trifluoromethyl)pyridine-2-carbonyl]-4-phenyl-piperidine-4-carbonitrile; 2,2,2-trifluoroacetate] it is 40 nM.
For the compound `Cc1cnc(C(=O)N2CCC(C#N)(c3ccccc3)CC2)cc1C(=O)N1CCC2c3c(F)cc(F)cc3OC2C1` (centres unmarked) [Example 19, 1-(4-(5,7-difluoro-1,2,3,4,4a,9a-hexahydrobenzofuro[2,3-c]pyridine-2-carbonyl)-5-methylpicolinoyl)-4-phenylpiperidine-4-carbonitrile], the EC50 was 49.3 nM.
Turning to `Cc1cnc(C(=O)N2CCC(C#N)(c3ccccc3)CC2)cc1C(=O)N1CCC2c3ccc(F)cc3OC2C1` (centres unmarked) [Example 20, 1-[4-(7-fluoro-3,4,4a,9a-tetrahydro-1H-benzofuro[2,3-c]pyridine-2-carbonyl)-5-methyl-pyridin-1-ium-2-carbonyl]-4-phenyl-piperidine-4-carbonitrile; 2,2,2-trifluoroacetate], the EC50 is 37.1 nM.
Take `COc1ccc2c(c1)OC1CN(C(=O)c3cc(C(=O)N4CCC(C#N)(c5ccccc5)CC4)ncc3C)CCC21` (centres unmarked) [Example 21, 1-[4-(7-methoxy-3,4,4a,9a-tetrahydro-1H-benzofuro[2,3-c]pyridine-2-carbonyl)-5-methyl-pyridin-1-ium-2-carbonyl]-4-phenyl-piperidine-4-carbonitrile; 2,2,2-trifluoroacetate]: the EC50 was 199 nM.
Turning to `Cc1cnc(C(=O)N2CCC(C#N)(c3ccccc3)CC2)cc1C(=O)N1CCC2c3ccc(C#N)cc3OC2C1` (centres unmarked) [Example 22, 2-[2-(4-cyano-4-phenyl-piperidine-1-carbonyl)-5-methyl-pyridin-1-ium-4-carbonyl]-3,4,4a,9a-tetrahydro-1H-benzofuro[2,3-c]pyridine-7-carbonitrile; 2,2,2-trifluoroacetate], the EC50 was 54.4 nM.
With `Cc1cnc(C(=O)N2CCC(C#N)(c3ccccc3)CC2)cc1C(=O)N1CCC2c3ccc(Cl)cc3OC2C1` (centres unmarked) [Example 23, 1-[4-(7-chloro-3,4,4a,9a-tetrahydro-1H-benzofuro[2,3-c]pyridine-2-carbonyl)-5-methyl-pyridin-1-ium-2-carbonyl]-4-phenyl-piperidine-4-carbonitrile; 2,2,2-trifluoroacetate], the EC50 is 75.1 nM.
The figure for `Cc1cnc(C(=O)N2CCC(C#N)(c3ccccc3)CC2)cc1C(=O)N1CCC2c3cc(F)c(F)cc3OC2C1` (centres unmarked) [Example 24, 1-[4-(6,7-difluoro-3,4,4a,9a-tetrahydro-1H-benzofuro[2,3-c]pyridine-2-carbonyl)-5-methyl-pyridin-1-ium-2-carbonyl]-4-phenyl-piperidine-4-carbonitrile; 2,2,2-trifluoroacetate] is 62.2 nM; for `CC(C)(C)C1CCN(C(=O)c2cc(C(=O)N3CCC(C#N)(c4ccccc4)CC3)ncc2C#N)CC1` [Example 25, 4-(4-tert-butylpiperidine-1-carbonyl)-6-(4-cyano-4-phenyl-piperidine-1-carbonyl)pyridin-1-ium-3-carbonitrile; 2,2,2-trifluoroacetate] it is 29.4 nM; for `Cc1nc(C(=O)N2CCC(C#N)(c3ccccc3)CC2)cc(C(=O)N2CCC(N3CCC(F)(F)C3)CC2)c1C` [Example 26, 1-[4-[4-(3,3-difluoropyrrolidin-1-ium-1-yl)piperidine-1-carbonyl]-5,6-dimethyl-pyridine-2-carbonyl]-4-phenyl-piperidine-4-carbonitrile; 2,2,2-trifluoroacetate] it is 105 nM.
The figure for `Cc1nc(C(=O)N2CCC(C#N)(c3ccccc3)CC2)cc(C(=O)N2CCC(C(C)(C)C)CC2)c1C` [Example 27, 1-[4-(4-tert-butylpiperidine-1-carbonyl)-5,6-dimethyl-pyridine-2-carbonyl] -4-phenyl-piperidine-4-carbonitrile] is 25.1 nM; for `Cc1nc(C(=O)N2CCC(C#N)(c3ccccc3)CC2)cc(C(=O)N2CCC(Cc3nccs3)CC2)c1C` [Example 28, 1-[5,6-dimethyl-4-[4-(thiazol-2-ylmethyl)piperidine-1-carbonyl]pyridine-2-carbonyl]-4-phenyl-piperidine-4-carbonitrile] it is 62.2 nM.
As for `Cc1nc(C(=O)N2CCC(C#N)(c3ccccc3)CC2)cc(C(=O)N2CCN(C3(c4ccccc4)CC3)CC2)c1C` [Example 29, 1-[5,6-dimethyl-4-[4-(1-phenylcyclopropyl)piperazine-1-carbonyl]pyridine-2-carbonyl]-4-phenyl-piperidine-4-carbonitrile], the figure is 41.1 nM; as for `Cc1nc(C(=O)N2CCC(C#N)(c3ccccc3)CC2)cc(C(=O)N2CCC(Cc3ccccc3)CC2)c1C` [Example 30, 1-[4-(4-benzylpiperidine-1-carbonyl)-5,6-dimethyl-pyridine-2-carbonyl]-4-phenyl-piperidine-4-carbonitrile], 47.8 nM; as for `Cc1nc(C(=O)N2CCC(C#N)(c3ccccc3)CC2)cc(C(=O)N2CCC(C)(c3ccccc3)CC2)c1C` [Example 31, 1-[5,6-dimethyl-4-(4-methyl-4-phenyl-piperidine-1-carbonyl)pyridine-2-carbonyl]-4-phenyl-piperidine-4-carbonitrile], 124 nM.
For the compound `Cc1nc(C(=O)N2CCC(C#N)(c3ccccc3)CC2)cc(C(=O)N2CCC(c3ccccc3)CC2)c1C` [Example 32, 1-[5,6-dimethyl-4-(4-phenylpiperidine-1-carbonyl)pyridine-2-carbonyl]-4-phenyl-piperidine-4-carbonitrile], the EC50 turned out to be 36.6 nM.

For the origin of these results see US12492187B2, “Factor XI activation inhibitors” (Merck Sharp & Dohme LLC, priority 2020, dated 2025).
